Measured values reported in PubChem BioAssay (NCI).
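Five concentrations, 48 hours, 96-well plates. Abbreviation: GI50, concentration required for 50% inhibition of growth. TGI: concentration producing complete growth inhibition.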

Experiments:
Test in all cases: NCI anticancer screen, dose series, 48 h
EKVX NSCLC = system: EKVX NSCLC
HT29 colon = system: HT29 colon
K-562 leukemia = system: K-562 leukemia
MOLT-4 leukemia = system: MOLT-4 leukemia
NCI-H226 lung = system: NCI-H226 lung
NCI-H522 lung = system: NCI-H522 lung
OVCAR-4 ovarian = system: OVCAR-4 ovarian
OVCAR-8 ovarian = system: OVCAR-8 ovarian
SK-MEL-5 melanoma = system: SK-MEL-5 melanoma
SW-620 colon = system: SW-620 colon

Structure (SMILES)	GI50 (EKVX NSCLC) [µM]	TGI (EKVX NSCLC) [µM]	GI50 (HT29 colon) [µM]	TGI (HT29 colon) [µM]	GI50 (K-562 leukemia) [nM]	TGI (K-562 leukemia) [µM]	GI50 (MOLT-4 leukemia) [µM]	TGI (MOLT-4 leukemia) [µM]	GI50 (NCI-H226 lung) [µM]	TGI (NCI-H226 lung) [µM]	GI50 (NCI-H522 lung) [nM]	TGI (NCI-H522 lung) [µM]	GI50 (OVCAR-4 ovarian) [µM]	TGI (OVCAR-4 ovarian) [µM]	GI50 (OVCAR-8 ovarian) [µM]	TGI (OVCAR-8 ovarian) [µM]	GI50 (SK-MEL-5 melanoma) [nM]	TGI (SK-MEL-5 melanoma) [µM]	GI50 (SW-620 colon) [µM]	TGI (SW-620 colon) [µM]
CC(C)c1ccc(C(C)C(=O)N(CC2=C(C(C)c3ccccn3)c3ccccc3C2)C(C)C)cc1 (stereo unspecified)	1.72	8.31	1.6	3.77	2390	15	2.46	13.1	2.68	21.7	2590	15.7	3.07	86.7	3.82	> 100	1970	4.62	3.18	15.8
CC1(C)COC(c2ccc(C(F)(F)F)cc2C(O)c2ccc3ccccc3c2)=N1 (stereo unspecified)	> 100	> 100	–	> 10	> 100000	> 100	> 100	> 100	> 10	> 100	–	> 10	> 100	> 100	> 100	> 100	> 100000	> 100	> 100	> 100
CC(=O)OC(C)C(=O)C1c2cccc(O)c2C(=O)c2c(O)cc(C)cc21 (stereo unspecified)	–	4.09	–	3.03	–	9.03	–	8.17	–	1.03	–	3.02	–	1.56	–	2.24	–	1.31	–	1.71
COc1cc2nc(C)nc(N[C@H](C)c3cc(N)cc(C(F)(F)F)c3)c2cc1O[C@H]1CCOC1	11.1	26.5	13.4	28.4	489	23.2	12.3	41.5	16.9	38.8	12800	29.3	17	55.1	15.5	42.8	13400	26.5	14.6	31.3
O=C1c2cccnc2-c2nc(-c3ccccc3[N+](=O)[O-])cc3c2c1nc1ccccc13	31.6	> 74.3	17.2	33.2	> 28800	> 100	–	> 100	> 100	> 100	2100	6.4	6.63	> 70.4	13.1	44.2	2600	8.23	3.27	18.9
Cc1nc2c(nc1C)C(=O)c1ccccc1C2=O	–	41.5	–	11.7	–	32.1	–	48	–	13.3	–	10.7	–	14.1	–	42.9	–	0.518	–	10.1
Cc1cnc(NC(=O)C(Cc2ccccc2)NC(=O)c2ccccc2)s1 (stereo unspecified)	19.5	47.6	26	> 100	37200	> 100	24.1	95.4	2.04	7.05	1530	21.8	16.3	> 100	2.38	9.16	1690	3.85	14	30.6
COc1cc(C(=O)/C=C/c2sc(Cl)nc2Cl)cc(OC)c1OC	1.67	3.12	2.21	5.53	1840	> 100	2.21	5.49	2.4	6.31	1680	3.96	1.77	3.19	1.93	3.96	1950	3.96	1.68	3.45
CC(=O)NC1=C(NCC(C)(C)C)C(=O)c2ccccc2C1=O	–	> 100	–	> 100	–	> 100	–	> 100	–	> 100	–	49.7	–	> 100	–	> 100	–	> 100	–	> 100
Fc1ccc(Nc2ncnc3ccc(-c4cnc5[nH]ccc5c4)cc23)cc1Cl	0.769	> 100	2.05	> 25.1	3480	> 100	> 20.8	> 100	1.99	4.97	12600	69.1	1.51	3.92	2.94	14.9	6880	40.3	4.02	> 47.3
NC(CSC(c1ccccc1)(c1ccccc1)c1ccc2c(c1)OCO2)C(=O)O (stereo unspecified)	0.625	79.4	1.81	> 44.5	406	> 100	0.631	17	15.9	> 84.8	208	0.535	7.81	> 81.6	0.595	> 100	365	5.01	0.396	> 100
O=C(O)C(Cc1ccccc1)N1C(=O)N/C(=C\c2ccc(F)cc2)C1=O (stereo unspecified)	–	> 100	–	> 100	–	> 100	–	> 100	–	> 100	–	> 100	–	> 100	–	> 100	–	> 100	–	> 100
COc1cc2nc(-c3ccc(C(F)(F)F)cc3)cc(OCCCN3CCC(O)CC3)c2cc1OC	1.03	21.7	0.486	10.4	1790	16.7	3.27	18.4	1.59	5.37	4150	19.3	9.14	22	1.66	22.2	1430	4.72	3.53	14.8
CSc1ccccc1C#C/C=C\C#Cc1ccccc1N1CCCC1=O	> 10.3	> 50	> 10.4	> 50	–	> 12.2	–	> 17.6	> 11.4	> 50	–	> 50	> 22.1	> 50	> 13.1	> 50	–	> 18.3	–	> 17.6
Cc1cc2nc(C(Cl)Cl)nc(-c3ccc(Cl)cc3)n2n1	1.6	4.3	0.36	3.99	1390	> 28.5	1.01	> 100	3.28	> 100	1560	5.23	1.06	4.38	0.964	> 100	1680	3.48	0.433	2.93
Cc1cc(=O)n2[nH]c(-c3ccc(C(C)(C)C)cc3)cc2n1	3.88	59.1	5.12	> 100	6720	> 100	6.56	> 100	5.28	> 100	3420	43	12.7	> 100	11.2	> 100	1820	12.1	4.4	> 100
COc1ccc(NC(=O)c2cc(OC)cc(OC)c2)cc1	–	> 100	–	> 100	–	> 100	–	> 100	–	> 100	–	83.8	–	> 100	–	> 100	–	> 100	–	> 100
O=C1C2=C(SCCS2)C(=O)c2ccccc21	–	2.69	–	4.44	–	5.14	–	27.7	–	3.57	–	3.17	–	3.01	–	3.04	–	3.09	–	3.68
C=CCc1cc(OC)c2c(c1)C(O)CC(c1ccc(OC)c(OC)c1)O2 (stereo unspecified)	–	> 100	–	> 100	–	> 100	–	> 100	–	> 100	–	> 100	–	> 100	–	> 100	–	> 100	–	> 100
COc1ccc(-c2cc(-c3ccc(Nc4nc(Nc5ccccc5)nc(Nc5ccc(Cl)cc5)n4)cc3)nc(N)c2C#N)cc1	1.44	> 22.9	1.1	2.96	1520	> 18.6	0.958	> 50	1.08	2.73	1160	3.38	1.06	3.2	1.81	> 50	1180	3.03	1.04	2.3
O=c1n(CC2CO2)c(=O)n(CC2CO2)n1CC1CO1 (stereo unspecified)	32.7	> 100	19.3	> 100	51400	> 100	4.46	> 100	40.6	> 100	12800	> 49.2	19.2	> 85	27.2	> 100	14700	> 79.9	22.5	> 100
O=C1/C(=C/c2ccc([N+](=O)[O-])cc2)COc2ccc(O)c(O)c21	1.77	3.72	2.2	5.85	547	> 100	1.29	> 100	11	45.8	204	0.474	1.44	2.78	2.29	9.93	2120	4.61	1.31	3.07
COc1cc2c(c(OC)c1O)C(=O)C(OC)C(c1ccc(O)c(O)c1)O2 (stereo unspecified)	15.2	> 100	6.1	> 67.7	48	> 100	0.482	> 100	4.8	> 100	59.9	–	> 100	> 100	0.484	> 100	757	3.26	0.234	> 100
CCCCCCCCSC1=CC(=O)c2nc3ccccc3c3ccnc1c23	> 100	> 100	> 100	> 100	27400	> 100	6.03	> 100	0.544	96.8	62800	> 100	19.1	> 100	> 100	> 100	98800	> 100	> 100	> 100
Cn1ccnc1C(=O)/C=C/c1ccc(CC(=O)Nc2ccc(Br)cc2)cc1	2.76	11.7	4.05	9.96	3880	> 16.7	3.69	14.8	4.15	> 16.7	3830	8.25	4.52	> 16.7	5.39	> 16.7	3580	8.25	4.15	13.4
O=C(NCCNc1nccc(-c2c(-c3cccc(O)c3)nc3sccn23)n1)c1ccccc1O	11.8	50.9	3.61	20.7	4110	> 100	4.87	> 52.2	9.24	32.3	4240	16.9	6.67	53.6	3.14	25.4	1470	5.21	5.86	48.4
O=C(Nc1ccc(I)cc1)c1cc([N+](=O)[O-])ccc1O	6.72	> 100	13.3	89.7	4690	> 100	4.67	51.3	6.19	80.4	2920	15.9	4.57	90.8	7.21	25.8	3630	18.6	15.5	54.5
CCOC(=O)c1ncn2c1[nH]c(=S)c1ccccc12	–	> 100	–	> 100	–	> 100	–	> 100	–	> 100	–	> 100	–	> 100	–	> 100	–	> 100	–	62
Cc1ccc(-c2nnc(-c3ccc4ccccc4c3)o2)cc1	–	> 100	–	> 100	–	> 51.2	–	> 26.6	–	99.9	–	> 100	–	> 100	–	> 100	–	> 100	–	> 100
